By Ki is commonly meant the equilibrium dissociation constant of an inhibitor or competing ligand from its target.

Among the data in patent US9340500B2, “Aromatic heterocyclic derivative having TRPV4-inhibiting activity” (SHIONOGI & CO., LTD., priority 2011, dated 2016) are Ki values, retold here.

The assay deals with human TRPV4 (Homo sapiens (Human), UniProt Q9HBA0). Description: Test Example 3: measurement of TRPV4 inhibitory activity (Fluo-3, FDSS 3000, 4α-PDD). The format is cell-based. The conditions noted are these: hTRPV4/CHO cells, calculated from IC50 and 4α-PDD EC50. The procedure:
For each compound, TRPV4 inhibitory activity was measured using cells.
(1) The TRPV4 inhibitory activity was measured using CHO-K1 cells stably expressing human TRPV4 (hTRPV4/CHO cells).
(2) Frozen cells were thawed and subcultured with the medium (MEM-α, 10% FBS, […], 50 unit/mL penicillin, 50 μg/mL streptomycin, 1 mg/mL G418).
(3) The 96-well plates which hTRPV4/CHO cells were seeded at densities of 2×10^4 cells/well in the culture medium and cultured in a CO2 incubator in the presence of 5% CO2 at 37° C. for 24 h was used as assay plates.
(4) The assay plate was washed with assay buffer (Hanks, […], […], pH7.4).
(5) Fluo-3, fluorescent dye for Ca influx assay was added to each well, then the assay plate was incubated in a CO2 incubator in the presence of 5% CO2 at 37° C. for one hour (final conc.; 5 μmmol/L Fluo-3).
(6) The assay plate was washed with the assay buffer, and the buffer was remained at 30 μL/well. Then the assay plate was incubated for 10 min at 37° C.
(7) Diluted compound solution was dispensed to each well in the compound plate, and mixed with built-in Pipette and Mixer of the fluorescence analysis system FDSS 3000 (Hamamatsu Photonics).
(8) 50 μL of 4α-PDD solution (concluding 0.1% Pluronic F-127) was applied to each well of assay plate and mixed.
(9) The fluorescent intensity was measured by FDSS 3000 for 8 min from the point of time addition the compound solution, at Ex 480 nm, Em 540 nm wavelength.
TRPV4 inhibitory activity (Ki value) of a compound was evaluated according to the following procedure.
(10) In the presence of the compound, the difference between maximal and minimal of fluorescent intensity value for 8 min from just before addition of 4α-PDD solution was calculated, and it was referred as Max-Min value. Max-Min value of the Ruthenium Red at 10 μM was defined as 100% inhibitory activity, Max-Min value in the absence of the compound was defined as 0% inhibitory activity. The TRPV4 inhibitory activity of the compound was calculated by the following formula. (1−(Max-Min value of the compound−100% inhibitory activity)/(0% inhibitory activity−100% inhibitory activity))×100 (11) By the following formula, inhibitory activity was calculated at 10 points with three fold serial dilution, in the final concentration of the compound from 10 μmmol/L to 0.5 nmol/L. The IC50 value was calculated by dose-response curve. 100−[(fluorescent intensity in the presence of the compound−fluorescent intensity of back ground)/(total fluorescent intensity−fluorescent intensity of back ground)]×100 (12) In the presence of the compound, activity of 4α-PDD was measured at 9 points with three fold serial dilution from 20 μmol/L. Activity of 4α-PDD was calculated by the following formula. (Max-Min value of the each 4α-PDD concentration−0% activity)/(100% activity−0% activity))×100 (13) Effective activity was calculated in 4α-PDD the above. The EC50 value was calculated by dose-response curve. (14) The Ki value of a compound was calculated by the following formula. Ki (nmol/L)=IC50 value (nmol/L)/([A]/EC50 value (nmol/L)) [A]; Concentration of agonist (nmol/L)

Sequence of human TRPV4 (Q9HBA0 whole entry): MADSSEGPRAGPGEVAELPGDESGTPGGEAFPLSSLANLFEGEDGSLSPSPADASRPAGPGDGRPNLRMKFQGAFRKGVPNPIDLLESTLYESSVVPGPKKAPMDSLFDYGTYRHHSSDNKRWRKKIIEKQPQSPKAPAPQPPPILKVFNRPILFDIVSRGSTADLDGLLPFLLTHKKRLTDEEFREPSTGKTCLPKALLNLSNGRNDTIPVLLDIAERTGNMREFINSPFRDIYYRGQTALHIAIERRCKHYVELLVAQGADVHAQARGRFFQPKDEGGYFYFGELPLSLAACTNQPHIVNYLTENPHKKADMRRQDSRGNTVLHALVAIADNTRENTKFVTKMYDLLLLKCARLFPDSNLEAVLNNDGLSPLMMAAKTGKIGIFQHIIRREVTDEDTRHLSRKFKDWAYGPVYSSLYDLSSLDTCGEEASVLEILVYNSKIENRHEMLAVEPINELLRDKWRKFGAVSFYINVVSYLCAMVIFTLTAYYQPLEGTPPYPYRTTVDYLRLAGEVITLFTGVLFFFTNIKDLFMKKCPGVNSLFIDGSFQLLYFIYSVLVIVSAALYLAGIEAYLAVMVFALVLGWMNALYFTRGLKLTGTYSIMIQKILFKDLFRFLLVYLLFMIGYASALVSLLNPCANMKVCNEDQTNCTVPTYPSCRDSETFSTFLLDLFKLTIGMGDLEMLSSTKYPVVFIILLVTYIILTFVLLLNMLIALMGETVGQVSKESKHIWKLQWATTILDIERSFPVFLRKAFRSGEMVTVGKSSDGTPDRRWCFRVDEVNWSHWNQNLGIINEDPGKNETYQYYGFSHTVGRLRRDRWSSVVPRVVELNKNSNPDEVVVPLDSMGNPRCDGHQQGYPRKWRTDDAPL

For `Cc1c(C(=O)Nc2cccc(C(F)(F)F)c2)cc(-c2ccccc2)n1CCCN(C)C(=O)c1ccncc1` [Compound I-047], the Ki is 0.32 µM. Take `COc1ccc(OC)c(CC(=O)N(C)CCCn2c(-c3ccccc3)cc(C(=O)Nc3cccc(C(F)(F)F)c3)c2C)c1` [Compound I-065]: the Ki is 0.85 µM.

Take `Cc1c(C(=O)Nc2cccc(C(F)(F)F)c2)cc(-c2ccccc2)n1CCCN(C)C(=O)c1ccc2ccccc2n1` [Compound I-055]: the Ki was 0.984 µM. Consider `COCCOCC(=O)N(C)CCCn1c(-c2ccccc2)cc(C(=O)Nc2cccc(C(F)(F)F)c2)c1C` [Compound I-050], for which the inhibition constant (Ki) is 1.14 µM.

On to `COC(=O)CCCN(C)CCCn1c(-c2ccccc2)cc(C(=O)Nc2cccc(C(F)(F)F)c2)c1C` [Compound I-041], for which the Ki was 0.988 µM. In the case of `Cc1c(C(=O)Nc2cccc(C(F)(F)F)c2)cc(-c2ccccc2)n1CCCN(C)C(=O)c1csc(-c2cccs2)n1` [Compound I-062], the Ki was 1.39 µM.

Consider `Cc1c(C(=O)Nc2cccc(C(F)(F)F)c2)cc(-c2ccccc2)n1CCCNc1ccccc1` [Compound I-011], for which the Ki is 1.7 µM. Regarding `CC(=O)N1CCC(C(=O)N(C)CCCn2c(-c3ccccc3)cc(C(=O)Nc3cccc(C(F)(F)F)c3)c2C)CC1` [Compound I-057], the Ki was 1.79 µM. For the molecule `Cc1c(C(=O)Nc2cccc(C(F)(F)F)c2)cc(-c2ccccc2)n1CCCN(C)C(=O)C(Cl)(Cl)Cl` [Compound I-064], the Ki is 0.713 µM. In the case of `Cc1c(C(=O)Nc2cccc(C(F)(F)F)c2)cc(-c2ccccc2)n1CCCN(C)C(=O)c1cccc(N(C)C)c1` [Compound I-069], the Ki was 0.816 µM. `Cc1c(C(=O)Nc2cccc(C(F)(F)F)c2)cc(-c2ccccc2)n1CCCN(C)CCOCc1ccccc1` [Compound I-034]: the Ki is 2.62 µM. For the molecule `Cc1c(C(=O)Nc2cccc(C(F)(F)F)c2)cc(-c2ccccc2)n1CCCN(C)C(=O)c1ccc2c(c1)OCO2` [Compound I-048], the Ki was 1.31 µM. Consider `Cc1c(C(=O)Nc2cccc(Cl)c2)cc(-c2ccccc2)n1CCCN1CCOCC1` [Compound I-013], for which the Ki is 0.453 µM.

Take `Cc1c(C(=O)Nc2cccc(C(F)(F)F)c2)cc(-c2ccccc2)n1CCCN(C)C(=O)C1CCOCC1` [Compound I-068]: the Ki was 1.01 µM. In the case of `Cc1c(C(=O)Nc2cccc(C(F)(F)F)c2)cc(-c2ccccc2)n1CCCN(C)c1ccccc1` [Compound I-012], the Ki was 1.14 µM. Regarding `Cc1c(C(=O)Nc2cccc(C(F)(F)F)c2)cc(-c2ccccc2)n1CCCN(C)C(=O)c1csc(-c2ccccc2)n1` [Compound I-061], the Ki was 1.7 µM. For `Cc1c(C(=O)Nc2cccc(C(F)(F)F)c2)cc(-c2ccccc2)n1CCCN(C)C(=O)c1ccccn1` [Compound I-054], the Ki is 1.17 µM.

In the case of `CCOC(=O)C1CC1CN(C)CCCn1c(-c2ccccc2)cc(C(=O)Nc2cccc(C(F)(F)F)c2)c1C` (centres unmarked) [Compound I-037], the Ki is 1.8 µM. For `Cc1c(C(=O)Nc2cccc(C(F)(F)F)c2)cc(-c2ccccc2)n1CCCN(C)C(=O)C1CCC1` [Compound I-059], the Ki was 0.472 µM. Consider `Cc1c(C(=O)Nc2cccc(C(F)(F)F)c2)cc(-c2ccccc2)n1CCCN(C)C(=O)OC(C)(C)C` [Compound I-030], for which the Ki is 0.701 µM. Take `CC(=O)Nc1ccc(C(=O)N(C)CCCn2c(-c3ccccc3)cc(C(=O)Nc3cccc(C(F)(F)F)c3)c2C)cc1` [Compound I-056]: the Ki was 0.56 µM.

As for `Cc1c(C(=O)Nc2nc3ccccc3s2)cc(-c2ccccc2)n1CCCN1CCOCC1` [Compound I-020], the Ki was 0.992 µM. For `Cc1c(C(=O)Nc2cccc(C(F)(F)F)c2)cc(-c2ccccc2)n1CCCN(C)C(=O)C(=O)c1c[nH]c2ccccc12` [Compound I-067], the Ki is 2.37 µM. Consider `Cc1c(C(=O)Nc2cccc(C(F)(F)F)c2)cc(-c2ccccc2)n1CCCN(C)C(=O)c1ccc2occc2c1` [Compound I-058], for which the Ki is 1.65 µM.

Turning to `Cc1c(C(=O)Nc2cccc(C(F)(F)F)c2)cc(-c2ccccc2)n1CCCN(C)C(=O)c1cnc2ccccc2n1` [Compound I-066], the Ki is 0.662 µM.

Regarding `Cc1c(C(=O)Nc2cccc(C(F)(F)F)c2)cc(-c2ccccc2)n1CCCN(C)C(=O)C1CC1` [Compound I-052], the Ki is 0.707 µM. `Cc1c(C(=O)Nc2cccc(C(F)(F)F)c2)cc(-c2ccccc2)n1CCCN(C)C(=O)C(C)C` [Compound I-051]: the Ki is 0.59 µM. Take `Cc1c(C(=O)Nc2cccc(C(F)(F)F)c2)cc(-c2ccccc2)n1CCCN(C)C(=O)C1CCCCC1` [Compound I-042]: the Ki is 1.12 µM. For `Cc1c(C(=O)Nc2cccc(C(C)C)c2)cc(-c2ccccc2)n1CCCN1CCOCC1` [Compound I-029], the Ki was 0.519 µM.

For `COCC(=O)N(C)CCCn1c(-c2ccccc2)cc(C(=O)Nc2cccc(C(F)(F)F)c2)c1C` [Compound I-045], the Ki was 1.72 µM.

As for `Cc1c(C(=O)Nc2cccc(C(F)(F)F)c2)cc(-c2ccccc2)n1CCCN(C)C(=O)Cc1cccs1` [Compound I-046], the Ki is 1.68 µM. As for `Cc1c(C(=O)Nc2cccc(C(F)(F)F)c2)cc(-c2ccccc2)n1CCCN(C)CC1CCOC1` (centres unmarked) [Compound I-036], the Ki is 1 µM. As to `Cc1c(C(=O)Nc2cccc(C(F)(F)F)c2)cc(-c2ccccc2)n1CCCN(C)C(=O)c1cccnc1` [Compound I-053], the Ki is 0.978 µM. Regarding `Cc1c(C(=O)Nc2cccc(C(F)(F)F)c2)cc(-c2ccccc2)n1CCCN(C)C(=O)c1ccco1` [Compound I-043], the inhibition constant Ki is 1.38 µM.

Regarding `Cc1c(C(=O)Nc2cccc(C(F)(F)F)c2)cc(-c2ccccc2)n1CCCN(C)CC1CCOCC1` [Compound I-040], the Ki was 1.14 µM.

With `Cc1c(C(=O)Nc2cccc(C(F)(F)F)c2)cc(-c2ccccc2)n1CCCN(C)C(=O)c1cccs1` [Compound I-044], the Ki is 0.844 µM.

In the case of `Cc1c(C(=O)OCc2ccccc2)cc(C(C)(C)C)n1CCCN1CCOCC1` [Compound I-001], the Ki was 3.96 µM. As for `Cc1c(C(=O)Nc2cccc(C(F)(F)F)c2)cc(-c2ccccc2)n1CCCN(C)C(=O)c1ccc(N(C)C)cc1` [Compound I-060], the Ki was 1.35 µM.
